How the values were obtained:
Assay type in all cases: in vivo, mice
IgG = assay: Serum level of IgG (ELISA)
Protocol: (§1) […] […] The control group was the mice feeding with an equal volume of saline (0.85% of NaCl). Mice were sacrificed at day five, and both the serum and spleen cells were collected. The sera were subsequently used to measure the concentration of IgG, IgM and IgA. The spleen cells were plated onto a 100 mm diameter culture plate and incubated at 37° C. for three hours. The non-adherent cells containing T-lymphocytes, B-lymphocytes and NK cells were collected and properly diluted as described in each assay.
(§2) The mouse to be sacrificed was cervical dislocated and sterilized with 70% ethanol. The cardiac punctuation was performed first to withdraw the blood. After the haemagglutination, the blood sample was subjected to centrifugation and the serum was collect. For isolation of spleen cells, the peritoneum was opened to remove the spleen. The fresh spleen was transferred to a culture plate containing 10 ml of RPMI-1640 culture medium. The spleen was then ground over a fine mesh to release the spleen cells. The spleen cells suspending in the medium were then removed and transferred to a 50-ml conical centrifuge tube. The tube was subjected to centrifugation at 1300 rpm for 10 min. The supernatant was discarded and the pellet was re-suspended in 1 ml of cold RBC lysing buffer containing EDTA-NH4Cl. The cells were incubated at room temperature for 10 min, followed by washing the cells three times with culture medium by centrifugation. The spleen cells were plated onto a 100 mm diameter culture plate and incubated at 37° C. for three hours. The non-adherent cells containing T-lymphocytes, B-lymphocytes and NK cells were collected and properly diluted as described in each assay.
(§3) An ELISA was performed in our study to measure the immunoglobulin concentration. Briefly, the spleen cells (5×10^5 cells/ml) were cultured in a medium containing RPMI 1640 supplemented with 10% fetal bovine serum (FBS), 2 mM L-glutamine, antibiotics and 5 μg/ml lipopolysaccharide (LPS; 1 μg/10^5 cells) for 5 days. LPS is a polyclonal activator of B lymphocyte. Culture spleen cell supernatants were collected at day 3, 4 and 5. IgA, IgG and IgM concentrations were measured using a sandwich ELISA technique.
A 96-well microtiter plate (Nunc-Immuno Plate, MaxiSorp, Nunc, Denmark) was precoated with 100 ng/well of capture antibodies at 4° C. overnight. The capture antibody was a rabbit anti-mouse IgG+IgA+IgM antibody (Zymed Laboratory, CA). The plate was washed with PBS-0.05% Tween 20 solution and blocked with PBS-1% gelatin. After the blocking, the properly diluted samples (1/10^5 diluted) and standard IgG ranged from 0.25 μg/ml to 0.039 μg/ml were added (100 μl/well). The plate was then incubated at 37° C. for 2 h. At the end of incubation, HRP-conjugated goat anti-mouse IgG (1:2,000 diluted; anti-whole IgG molecule; Zymed Laboratory, CA) was added (100 μl/well). After 1 h of incubation at 37° C., the color was developed using a substrate solution containing 0.1 M citrate buffer, pH 4.5, 0.03% H2O2 and 0.1% of o-phenylenediamine. The absorbence at 490 nm in each well was read using an ELISA reader (EL311, BioTek, VT), and the data was analyzed using log-logit model.

IgM [1] = assay: IgM secretion by spleen cells in vitro (LPS, ELISA) after oral administration; conditions: for Dose with significant increase in IgM secretion by spleen cells: oral, after three days of in vitro culture
Protocol: as §1, §2, §3
(§4) The procedure for IgM assay was similar to that for IgG assay, except that the samples were 1/10^4 diluted and standard IgM ranged from 1 μg/ml to 0.0156 μg/ml were added (100 μl/well). The secondary antibody for the assay was HRP-conjugated goat anti-mouse IgM (1:1,000 diluted; heavy chain-specific; Zymed Laboratory, CA).

IL-10 = IL-10 secretion by Con A-stimulated spleen cells (ELISA) after oral administration
Protocol: For the drug treatment, the animals were divided into four groups and oral administration with 1 ml of PCM, ranging from 10, 40 to 80 mg/kg/day, for four days. […] The control group was the mice feeding with an equal volume of saline (0.85% of NaCl). Mice were sacrificed at day five, and both the serum and spleen cells were collected. The sera were subsequently used to measure the concentration of IgG, IgM and IgA. The spleen cells were plated onto a 100 mm diameter culture plate and incubated at 37° C. for three hours. The non-adherent cells containing T-lymphocytes, B-lymphocytes and NK cells were collected and properly diluted as described in each assay.
as §2
For the quantitative analysis of IFN-γ and IL-10, the spleen cells (1×10^6 cells/ml) were cultured in a medium containing RPMI 1640 supplemented with 10% fetal bovine serum (FBS), 2 mM L-glutamine, antibiotics and 1 μg/ml concanavalin A (Con A) for 3 days. Con A is one of the polyclonal activators for T lymphocyte. Culture spleen cell supernatants were collected. The IFNγ and IL-10 concentrations were measured using a cytokine ELISA set (Cyto Set ELISA kit) purchased from R&D Systems (MN, USA).
Cyto Set ELISA was performed as follows: A 96-well microtiter plate (Nunc-Immuno Plate, MaxiSorp, Nunc, Denmark) was precoated with capture antibodies at 4° C. overnight. The capture antibody was a rat monoclonal antibody to mouse IL-10. The samples to be tested and standard IL-10 ranged from 500 pg/ml to 15.6 pg/ml were added (100 μl/well). The plate was then incubated at 37° C. for 20 min. At the end of incubation, the plate was washed five times, followed by adding the biotinylated goat anti IL-10 polyclonal antibody. The color was developed by incubating the plate with a HRP-conjugated streptoavidin (Zymed, CA, USA), followed by a substrate solution containing hydrogen peroxide and tetramethylbenzidine (TMB). The reaction continued for 30 min at room temperature, and was stopped by adding 100 μl of 2N of sulfuric acid. The absorbence at 450 nm in each well was read using an ELISA reader (EL311, BioTek, Winooski, Vt.), and the data was analyzed using log-logit model.
TH1-type cytokines, such as interleukin-2 (IL-2), interferon-γ (IFN-γ) induces the cellular immune response. Whereas, TH2-type cytokines, such as interleukin-4 (IL-4), interleukin-5 (IL-5), interleukin-6 (IL-6), stimulates the B lymphocyte-mediated humoral immune response. […] Spleen cells isolated from the mice treated with PCM and its purified components, such as PCM-K1, -K2, -K3 and K4, were cultured for five days in the presence of ConA. The amount of interferon-γ (IFNγ; TH1-type cytokine) and interleukin-10 (IL-10; TH2-type cytokine) secreted by the spleen T lymphocytes was measured (Table 7.1 & Table 7.2). […]

IgM [2] = assay: Serum level of IgM (ELISA); conditions: for Dose with significant increase in serum level of IgM: oral
Protocol: as §1, §2, §3, §4

[3] = oral 10 mg/kg/day for four days
[4] = oral 20 mg/kg/day for four days

Row | Compound | Serum immunoglobulin concentration IgG (IgG; oral 5 mg/kg/day for four days) | Serum immunoglobulin concentration IgG (IgG; [3]) | Serum immunoglobulin concentration IgG (IgG; [4]) | IgM secretion by spleen cell, incubation day 3 (IgM [1]; oral 5 mg/kg/day for four days) | IgM secretion by spleen cell, incubation day 4 (IgM [1]; oral 5 mg/kg/day for four days) | IgM secretion by spleen cell, incubation day 5 (IgM [1]; oral 5 mg/kg/day for four days) | IgM secretion by spleen cell, incubation day 3 (IgM [1]; [3]) | IgM secretion by spleen cell, incubation day 4 (IgM [1]; [3]) | IgM secretion by spleen cell, incubation day 5 (IgM [1]; [3]) | IgM secretion by spleen cell, incubation day 3 (IgM [1]; [4]) | IgM secretion by spleen cell, incubation day 4 (IgM [1]; [4]) | IgM secretion by spleen cell, incubation day 5 (IgM [1]; [4]) | Dose with significant increase in IgM secretion by spleen cells (IgM [1]) | IL-10 secretion by spleen cell (IL-10; oral 5 mg/kg/day for four days) | IL-10 secretion by spleen cell (IL-10; [3]) | IL-10 secretion by spleen cell (IL-10; [4]) | Dose with significant increase in serum level of IgM (IgM [2]) | Serum immunoglobulin concentration IgM (IgM [2]; oral 5 mg/kg/day for four days) | Serum immunoglobulin concentration IgM (IgM [2]; [3]) | Serum immunoglobulin concentration IgM (IgM [2]; [4])
1 | C=C(CC[C@@H](C(=O)O)[C@H]1[C@H](O)C[C@@]2(C)C3=CC[C@H]4C(C)(C)C(=O)CC[C@]4(C)C3=CC[C@]12C)C(C)C [K3] | 1.32 ± 0.09 mg/mL | 1.28 ± 0.13 mg/mL | 1.14 ± 0.11 mg/mL | 222.42 ± 42.83 | 214.45 ± 28.51 | 277.52 ± 101.63 | 287.66 ± 44.44 | 294.30 ± 30.68 | 309.51 ± 30.88 | 372.14 ± 69.48 | 519.53 ± 52.63 | 606.44 ± 88.10 | 10 mg/kg/day | 262.09 ± 108.41 pg/mL | 86.48 ± 33.26 pg/mL | 98.74 ± 27.05 pg/mL | 5 mg/kg/day | 1.63 ± 0.11 mg/mL | 1.53 ± 0.14 mg/mL | 1.53 ± 0.13 mg/mL
2 | C=C(CCC(C(=O)O)C1C(O)CC2(C)C3=CCC4C(C)(CCC(O)C4(C)C)C3=CCC12C)C(C)C (stereo not shown) [K4] | 3.75 ± 0.18 mg/mL | 4.33 ± 0.29 mg/mL | 4.18 ± 0.25 mg/mL | 463.65 ± 76.41 | 688.17 ± 85.78 | 649.89 ± 70.09 | 514.45 ± 70.30 | 733.58 ± 95.70 | 807.32 ± 104.21 | 747.6 ± 128.42 | 746.50 ± 157.76 | 857.49 ± 92.19 | ≥ 5 mg/kg/day | 128.91 ± 45.46 pg/mL | 197.39 ± 68.73 pg/mL | 155.91 ± 26.16 pg/mL | 5 mg/kg/day | 2.65 ± 0.21 mg/mL | 2.86 ± 0.16 mg/mL | 2.36 ± 0.16 mg/mL
